Results taken from patent publication US9163035B2, “Melonine bisindole compounds, pharmaceutical compositions, preparation method and use thereof” (Kunming Institute of Botany, The Chinese Academy of Sciences, priority 2009, dated 2015).
Like-named read-outs stand apart in the source and are kept apart here.

Experiments:
[1] = Solubility (qualitative description); assay type: physicochemical
[2] = test system: HL-60, human leukemic cell strain; experiment: IC50 test on tumor cells (MTT), HL-60; assay type: cell-based; details: HL-60, MTT, 48 h, read-out: Half Inhibitory concentrations (IC50) on human tumor cell strain growth
Description: (§1) The melonines A, B, C and D as prepared in Example 1 were separately dissolved with dimethyl sulfoxide (DMSO) to form 1 mg/ml storage solutions, stored away from light for standby use.
(§2) Cisplatin was used as positive control.
(§3) (1) Inoculating cells: preparing cell suspension with culture medium comprising 10% fetal bovine serum (DMEM or RMPI1640), inoculating 96 wells plate with 10000-20000 cells per well (100 μl per well); if adherent cells are needed, inoculation and culture will be conducted 12 h in advance.
(§4) (2) adding a solution of compound to be tested (compound monomer of fixed concentration 40 μM for primary screening, crude extract of 100 μg/ml for primary screening, setting 5 concentrations for gradient repetitive screening for those compounds with a tumor cell growth inhibition rate of about 50% at the concentration for primary screening), final volume of 200 μl per well, and setting 3 repetitive wells for each treatment.
(§5) (3) Developing: culturing at 37° C. for 48 h, adding 20 μl of MTT solution to each well, continually incubating for 4 h, terminating cultivation, carefully discarding supernatant 100 μl to avoid cell lose, adding 20% SDS 100 μl to each well, incubating overnight (37° C.) to completely dissolve crystal.
(§6) (4) colorimetric analysis: selecting 595 nm wavelength, reading light absorption value of each well by […] (Bio-Rad 680), recording results, plotting cell growth curve using concentration as abscissa and cell survival rate as ordinate, and calculating IC50 value of compound using Reed and Muench method.
(§7) (5) Positive control: cisplatin.

[3] = test system: SK-BR-3, human breast cancer cell strain; experiment: IC50 test on tumor cells (MTT), SK-BR-3; assay type: cell-based; details: SK-BR-3, MTT, 48 h, read-out: Half Inhibitory concentrations (IC50) on human tumor cell strain growth
Description: as §1, §2, §3, §4, §5, §6, §7

[4] = test system: PANC-1, human pancreatic cancer cell strain; experiment: IC50 test on tumor cells (MTT), PANC-1; assay type: cell-based; details: PANC-1, MTT, 48 h, read-out: Half Inhibitory concentrations (IC50) on human tumor cell strain growth
Description: as §1, §2, §3, §4, §5, §6, §7

[5] = test system: SMMC7721, human liver cancer cell strain; experiment: IC50 test on tumor cells (MTT), SMMC7721; assay type: cell-based; details: read-out: Half Inhibitory concentrations (IC50) on human tumor cell strain growth
Description: as §1, §2, §3, §4, §5, §6, §7

[6] = test system: A549, human lung cancer cell strain; experiment: IC50 test on tumor cells (MTT), A549; assay type: cell-based; details: 48 h, read-out: Half Inhibitory concentrations (IC50) on human tumor cell strain growth
Description: as §1, §2, §3, §4, §5, §6, §7

[7] = Acute toxicity test, mice; details: mouse, in vivo, intravenous, tail vein injection
Description: (§8) Animal lines: healthy mice, rats. Age was 7-9 weeks. In the same batch of tests, the initial body weight of mice or rats should not be greater or less than the average body weight by 20%.
(§9) Administration route: tail vein injection for both rats and mice.
(§10) Measurement of median lethal dose (LD50):
Maximum tolerated dose (MTD) test method: MTD refers to a dose that causes significant toxic reaction without death in animals.
(§11) Test observation: the observation was performed for one week after administered with the drug to be tested, the time of appearance and disappearance of various toxic reactions was carefully observed and recorded for each animal. The observation and recording were performed twice on the day of administering the drug to be tested, then once per day in the following days. The contents to be observed and recorded include skin, mucous membrane, coat color, eyes, respiration, circulation, behaviors of autonomic and central nervous systems, etc. Before the drug to be tested was administered, one week after the drug to be tested was administered, when the animal died, and when the test was ended, the animals were weighed to get their body weights. All animals, including dead or executed animals, were subjected to autopsy, and histopathologic examination was performed for organs with abnormal autopsy results.

[8] = Acute toxicity test, rats; details: rat, in vivo, intravenous, tail vein injection
Description: as §8, §9, §10, §11

[9] = test system: human NCI-H460 nude mouse transplanted tumor; experiment: Activity against nude mouse-transplanted tumors; assay type: in vivo, female BALB/cA nude mice; details: 10 mg/kg intravenous, 3 times per week
Description: (§12) Test animals: female BALB/cA nude mice, 35-40 days, body weight 18-22 g, provided by Shanghai Slack, certificate no.: SCXK (Hu) 2007-0005. Divided into four groups:
Negative control group: 12 mice (intravenous injection with physiological saline, 3 times per week).
(§13) Administration group 1: 6 mice, intravenously administered with melonine C, in a dose of 20 mg/kg, 3 times per week.
(§14) Administration group 2: 6 mice, intravenously administered with melonine C, in a dose of 10 mg/kg, 3 times per week.
(§15) Administration group 3: 6 mice, intravenously administered with melonine C, in a dose of 2 mg/kg, 3 times per week.
Transplanted tumors: human NCI-H460 nude mouse transplanted tumor, established by subcutaneously inoculating human NCI-H460 cell strain to female BALB/c nude mice (from Shanghai Slack Co., Ltd.). Inoculated cell number was 3×10^6, the formed transplanted tumor after inoculation was then passaged 3 times in body of nude mice before use. […]
The well-grown tumor tissues were cut into 1.5 mm^3 pieces, inoculated into right-side armpit subcutaneously under sterile condition. The nude mouse transplanted tumore diameter was measured by vernier caliper, and the animals were grouped randomly when the tumore grew to 100-300 mm^3. […]

[10] = Body weight of NCI-H460 tumor-bearing nude mice; assay type: in vivo, female BALB/cA nude mice; details: 20, 10 and 2 mg/kg intravenous, 3 times per week
Description: as §12, §13, §14, §15
The well-grown tumor tissues were cut into 1.5 mm^3 pieces, inoculated into right-side armpit subcutaneously under sterile condition. The nude mouse transplanted tumore diameter was measured by vernier caliper, and the animals were grouped randomly when the tumore grew to 100-300 mm^3. The antitumor effects of the compounds to be tested were observed by measuring tumor diameters. The number of measuring tumore diameters was 3 per week, and the mice were weighed simultaneously when each measurement was conducted. Melonine C was intravenously administered in doses of 20 mg/kg, 10 mg/kg, 2 mg/kg, separately, 3 times per week.

[11] = Acute toxicity test, observation and autopsy; assay type: in vivo; details: tail vein injection, immediately after dosing
Description: as §8, §9, §11

SMILES	solubility in acetone [1]	solubility in methanol [1]	solubility in water [1]	IC50 ([2]; Homo sapiens)	IC50 ([3]; Homo sapiens)	IC50 ([4]; Homo sapiens)	IC50 ([5]; Homo sapiens, SMMC-7721, 48 h)	IC50 ([6]; Homo sapiens)	LD50 at 1 week ([7]; mice)	MTD at 1 week ([7]; printed on the mice line, read-out: MTD (maximum tolerated dose))	LD50 at 1 week [8]	relative tumor proliferation rate T/C (%) [9]	effect on the body weight [10]	toxic reactions observed [11]	IC50 [2]	IC50 [3]	IC50 [4]	IC50 ([5]; 48 h)	IC50 [6]	solubility in chloroform ([1]; chloroform)
CCC12CCCN3CCc4c(n(c5ccccc45)C(c4ccc(O)c5c4N=C4CCC6(CC)CCCN7CCC45C76)C1)C32 (centres unmarked) [Melonine D, melonine D]	slightly soluble	Easily soluble	slightly soluble	2.77 µM	23.2 µM	23.4 µM	18.1 µM	11.1 µM	–	–	–	–	–	–	–	–	–	–	–	–
CCC12CCCN3CCc4c(n(c5ccccc45)C(c4ccc(O)c5c4NC4CCC6(CC)CCCN7CCC54C76)C1)C32 (centres unmarked) [Melonine C, melonine C]	slightly soluble	easily soluble	slightly soluble	0.66 µM	3.63 µM	3.77 µM	2.73 µM	3.01 µM	32 mg/kg	22 mg/kg	20 mg/kg	56.41%	no significant effect	accelerated breathing, ataxia, convulsions, or even died	–	–	–	–	–	–
CCC12CCCN3CCc4c(n(c5ccccc45)C(c4cc5c(cc4O)N4CCCC6(CC)CCCN7CCC5(OC)C746)C1)C32 (centres unmarked) [Melonine B, melonine B]	slightly soluble	Easily soluble	slightly soluble	2.53 µM	7.78 µM	14.5 µM	7.4 µM	14.7 µM	–	–	–	–	–	–	–	–	–	–	–	–
N.N.[Cl][Pt][Cl] [Cisplatine, Cisplatin, reference compound]	–	–	–	–	–	–	–	–	–	–	–	–	–	–	0.75 µM	22.5 µM	19.5 µM	14.1 µM	26.5 µM	–
CCC12CCCNC3=C(C(=O)C(=O)C=C3C3CC4(CC)CCCN5CCc6c(n3c3ccccc63)C54)C3=C1N(CCC2)CC3 (centres unmarked) [Melonine A, melonine A]	Easily soluble	Easily soluble	slightly soluble	2.84 µM	15.4 µM	> 40 µM	11.5 µM	22.1 µM	–	–	–	–	–	–	–	–	–	–	–	Easily soluble
